Laboratory results published in patent US10786450B2, “Process for preparing a dry powder formulation comprising an anticholinergic, a corticosteroid and a beta-adrenergic” (CHIESI FARMACEUTICI S.p.A., priority 2017, dated 2020).

Experiments:
[1] = Aerosol performance by Next Generation Impactor (NGI) from multidose dry powder inhaler; format: physicochemical; conditions: Example 3 powder formulation; for Mid Fine particle Fraction: 2.0 to 5.0 microns; for Delivered Dose: multidose DPI of WO 2004/012801, 3 doses; for Mid Fine Particle Mass: particle size between 2.0 and 5.0 microns; for Fine Particle Mass: particle size equal to or lower than 5.0 microns; for Fine Particle Fraction: ratio fine particle mass to delivered dose
Text: After aerosolization of 3 doses from the inhaler device, the NGI apparatus was disassembled and the amounts of drug deposited in the stages were recovered by washing with a solvent mixture and then quantified by High-Performance Liquid Chromatography (HPLC). […] (v) the fine particle fraction (FPF) which is the ratio between the fine particle mass and the delivered dose; and (vi) the MMAD.

[2] = micronized active ingredient as used in Example 3
Protocol: The size of the particles active is determined by measuring the characteristic equivalent sphere diameter, known as volume diameter, by laser diffraction.
Microparticles as obtained in Example 2 were used. […] Beclometasone dipropionate (BDP) having the following particle size was used: d(v0.1)=0.7 micron; d(v0.5)=1.5 micron; and d(v0.9)=2.8 micron.

For `CCC(=O)OCC(=O)[C@@]1(OC(=O)CC)[C@@H](C)C[C@H]2[C@@H]3CCC4=CC(=O)C=C[C@]4(C)[C@@]3(Cl)[C@@H](O)C[C@@]21C` [BDP, beclometasone dipropionate], the “Extrafine Particle Fraction <1 μm” value [1] was 13.9%, the “Extrafine Particle Fraction <2 μm” value [1] was 32.1% and the “Extrafine Particle Mass <1 μm” value [1] was 12.4 µg. For the same molecule, the “Extrafine Particle Mass <2 μm” value [1] was 28.5 µg, the MMAD [1] was 1.6 μm and the “Mid Fine particle Fraction” value [1] was 17.1%. The “Delivered Dose” value [1] was 88.5 µg, the “Mid Fine Particle Mass” value [1] was 15.2 µg and the “Fine Particle Mass” value [1] was 43.6 µg. The “Fine Particle Fraction” value [1] was 49.3%, the “d(v0.1)” value [2] was 0.7 micron and the “d(v0.5)” value [2] was 1.5 micron. The “d(v0.9)” value [2] was 2.8 micron.
For `C[N+]1(C)CCC(OC(=O)C(O)(c2ccccc2)C2CCCC2)C1` (racemic) [GB, glycopyrronium bromide], the “Extrafine Particle Fraction <1 μm” value [1] was 9.8%, the “Extrafine Particle Fraction <2 μm” value [1] was 26.4% and the “Extrafine Particle Mass <1 μm” value [1] was 1.1 µg. For the same molecule, the “Extrafine Particle Mass <2 μm” value [1] was 2.9 µg, the MMAD [1] was 1.9 μm and the “Mid Fine particle Fraction” value [1] was 21.6%. For the same molecule, the “Delivered Dose” value [1] was 11.1 µg, the “Mid Fine Particle Mass” value [1] was 2.4 µg and the “Fine Particle Mass” value [1] was 5.4 µg. The “Fine Particle Fraction” value [1] was 48.1%.
